The text below walks through data of PubChem BioAssay (NCI).

Among the test systems are IGROV1 ovarian; NCI-H522 lung; COLO 205 colon; RPMI-8226 leukemia; SF-539 CNS; OVCAR-3 ovarian; HCC-2998 colon; OVCAR-4 ovarian; SF-295 CNS; RXF 393 renal.
What all share (test): growth of human tumour cells (NCI), 48 h

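Cells were grown in 96-well plates and exposed to each compound for 48 hours at five concentrations; endpoints were interpolated linearly between bracketing concentrations, or set to the highest concentration if not reached. GI50 = concentration required for 50% inhibition of growth. TGI is the concentration that stops growth completely.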

Take `C[C@@H]1OC(=O)NN=C1c1ccc(-c2ccc(F)cc2)c(C(F)(F)F)c1`: the GI50 in the experiment on IGROV1 ovarian is 14.2 µM; in the experiment on NCI-H522 lung, 2.72 µM; with COLO 205 colon, 11.8 µM; with RPMI-8226 leukemia, 5.78 µM; in the experiment with SF-539 CNS it was 11.2 µM; in the experiment with OVCAR-3 ovarian, 6.01 µM. In addition, the GI50 was 10.6 µM in the experiment on HCC-2998 colon, 6.36 µM with OVCAR-4 ovarian, 5.49 µM in the experiment on SF-295 CNS and 1.58 µM in the experiment on RXF 393 renal. Moreover, the TGI with IGROV1 ovarian stood at 29.9 µM; with NCI-H522 lung it was 14.5 µM; in the experiment with COLO 205 colon, 28 µM; in the experiment with RPMI-8226 leukemia, 51.2 µM; in the experiment with SF-539 CNS, 24.3 µM; with OVCAR-3 ovarian, 20.3 µM. In addition, the TGI came to 23.1 µM in the experiment on HCC-2998 colon, 20.6 µM with OVCAR-4 ovarian, 19.2 µM in the experiment with SF-295 CNS and 7.62 µM in the experiment on RXF 393 renal.
With `O=C1CCC(N2C(=O)c3cccc(NCCOCCOCCNC(=O)c4cc5c(o4)C(=O)c4ccccc4C5=O)c3C2=O)C(=O)N1` (stereo not given), the GI50 with IGROV1 ovarian was 1.87 µM; in the experiment on NCI-H522 lung, 1.71 µM; in the experiment with COLO 205 colon, 1.98 µM; in the experiment on RPMI-8226 leukemia, 2.43 µM; in the experiment on SF-539 CNS, 1.62 µM; in the experiment on OVCAR-3 ovarian, 0.295 µM. Besides, the GI50 in the experiment with HCC-2998 colon was 1.89 µM; in the experiment on OVCAR-4 ovarian, 1.29 µM; with SF-295 CNS, 1.68 µM; with RXF 393 renal, 1.67 µM. The TGI in the experiment with IGROV1 ovarian amounted to 4.29 µM; in the experiment on NCI-H522 lung it was 4.38 µM; with COLO 205 colon it was 3.94 µM; in the experiment on RPMI-8226 leukemia it was 7.85 µM; in the experiment with SF-539 CNS it was 2.99 µM; with OVCAR-3 ovarian it was 1.03 µM. Moreover, the TGI was 3.57 µM with HCC-2998 colon, 2.57 µM in the experiment with OVCAR-4 ovarian, 3.08 µM in the experiment on SF-295 CNS and 3.21 µM in the experiment with RXF 393 renal.
Regarding `OCCCCCNc1ccnc2cc(Cl)ccc12`, the TGI in the experiment on IGROV1 ovarian, with NCI-H522 lung, in the experiment with COLO 205 colon, with RPMI-8226 leukemia, in the experiment on SF-539 CNS and in the experiment on OVCAR-3 ovarian was > 100 µM in each case. Also, the TGI in the experiment on HCC-2998 colon, with OVCAR-4 ovarian, with SF-295 CNS and with RXF 393 renal was > 100 µM each time.
Regarding `CC1(C)Oc2ccccc2[N+]([O-])=C1c1ccccc1`, the TGI with IGROV1 ovarian, with NCI-H522 lung, with COLO 205 colon, with RPMI-8226 leukemia, in the experiment with SF-539 CNS and with OVCAR-3 ovarian was > 100 µM each time. Moreover, the TGI with HCC-2998 colon, in the experiment with OVCAR-4 ovarian, in the experiment on SF-295 CNS and with RXF 393 renal was > 100 µM throughout.
As to `CN1CCN(Cc2ccc(NC(=O)c3cccc(C#Cc4c(N)ncc5ccc(F)cc45)c3)cc2C(F)(F)F)CC1`, the GI50 is 0.597 µM with IGROV1 ovarian; 0.756 µM with NCI-H522 lung; 0.737 µM in the experiment with COLO 205 colon; 1.03 µM in the experiment on RPMI-8226 leukemia; 0.548 µM in the experiment with SF-539 CNS; 0.853 µM in the experiment on OVCAR-3 ovarian. Also, the GI50 in the experiment with HCC-2998 colon is 0.969 µM; in the experiment on OVCAR-4 ovarian it was 0.511 µM; with SF-295 CNS, 0.917 µM; in the experiment on RXF 393 renal it was 0.697 µM. Also, the TGI with IGROV1 ovarian was found to be 1.4 µM; in the experiment on NCI-H522 lung it was 1.53 µM; in the experiment with COLO 205 colon, 1.66 µM; with RPMI-8226 leukemia, 2.59 µM; in the experiment with SF-539 CNS it was 1.19 µM; with OVCAR-3 ovarian, 1.8 µM. For the same molecule, the TGI was found to be 1.84 µM in the experiment with HCC-2998 colon, 1.77 µM with OVCAR-4 ovarian, 1.78 µM with SF-295 CNS and 1.4 µM in the experiment on RXF 393 renal.
In the case of `Nc1nc(CC2(O)CCCCC2)cc(-c2ccccc2)n1`, the TGI in the experiment on IGROV1 ovarian was > 100 µM; in the experiment with NCI-H522 lung, > 100 µM; in the experiment on COLO 205 colon, 32.9 µM; with RPMI-8226 leukemia, 78.6 µM; in the experiment on SF-539 CNS, > 100 µM; with OVCAR-3 ovarian it was > 63.6 µM. In addition, the TGI with HCC-2998 colon is > 81 µM; in the experiment with OVCAR-4 ovarian it was > 76.8 µM; with SF-295 CNS, > 77.3 µM; in the experiment on RXF 393 renal, > 57.5 µM.
Turning to `CSC1SCC2C(=O)N(C)C(C(C)C)C(=O)OCC(NC(=O)c3cnc4ccccc4n3)C(=O)NC(C)C(=O)N(C)C1C(=O)N(C)C(C(C)C)C(=O)OCC(NC(=O)c1cnc3ccccc3n1)C(=O)NC(C)C(=O)N2C` (stereo not given), the GI50 with IGROV1 ovarian, in the experiment with NCI-H522 lung, in the experiment on COLO 205 colon, with RPMI-8226 leukemia, in the experiment on SF-539 CNS and in the experiment with OVCAR-3 ovarian was < 0.001 µM each time. The GI50 in the experiment with HCC-2998 colon, in the experiment with OVCAR-4 ovarian, with SF-295 CNS and in the experiment on RXF 393 renal was < 0.001 µM throughout.
In the case of `CC(C)Cc1ccc(C(C)/C=C2\CCC(CN3CCCCC3)C2=O)cc1` (stereo not given), the TGI stood at 9.05 µM in the experiment on IGROV1 ovarian; 2.9 µM in the experiment on NCI-H522 lung; 15.6 µM in the experiment on COLO 205 colon; 6.65 µM in the experiment on RPMI-8226 leukemia; 11.4 µM in the experiment with SF-539 CNS; 11 µM in the experiment on OVCAR-3 ovarian. Besides, the TGI in the experiment with HCC-2998 colon came to 17.7 µM; with OVCAR-4 ovarian it was 14.2 µM; in the experiment on SF-295 CNS it was 26.5 µM; in the experiment on RXF 393 renal, 5.73 µM.
As for `O=C1c2ccccc2-c2c1c1ccc([N+](=O)[O-])cc1c(=O)n2CCCn1ccnc1`, the GI50 was 0.696 µM in the experiment on IGROV1 ovarian; 1.08 µM in the experiment with NCI-H522 lung; 4.57 µM with COLO 205 colon; 0.0153 µM in the experiment with RPMI-8226 leukemia; 0.0149 µM in the experiment on SF-539 CNS; 0.334 µM in the experiment with OVCAR-3 ovarian. Moreover, the GI50 with HCC-2998 colon was 2 µM; in the experiment with OVCAR-4 ovarian it was 0.943 µM; in the experiment with SF-295 CNS, 0.306 µM; with RXF 393 renal it was 0.16 µM. Besides, the TGI in the experiment on IGROV1 ovarian is 2.71 µM; in the experiment with NCI-H522 lung it was 5.68 µM; in the experiment on COLO 205 colon it was > 38.5 µM; with RPMI-8226 leukemia it was 0.0653 µM; in the experiment on SF-539 CNS, 0.0838 µM; with OVCAR-3 ovarian it was 2.12 µM. For the same molecule, the TGI was determined as 5.57 µM with HCC-2998 colon, 13.2 µM with OVCAR-4 ovarian, 2.29 µM in the experiment on SF-295 CNS and 2.43 µM in the experiment on RXF 393 renal.
